Experiment [1] deals with Prothrombin (Bos taurus, UniProt P00735). In words: Binding affinity towards thrombin.
Experiment [2] has as its target T1, Serine protease 1 (Bos taurus, UniProt P00760).
T1 sequence (P00760 whole entry): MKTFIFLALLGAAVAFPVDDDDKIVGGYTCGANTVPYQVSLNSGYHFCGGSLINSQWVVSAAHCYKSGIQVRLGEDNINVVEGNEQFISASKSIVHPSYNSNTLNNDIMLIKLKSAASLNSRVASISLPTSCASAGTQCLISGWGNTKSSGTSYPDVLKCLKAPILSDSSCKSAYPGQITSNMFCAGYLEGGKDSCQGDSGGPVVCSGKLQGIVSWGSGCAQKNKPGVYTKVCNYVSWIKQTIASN
The experiment can be described thus: Binding affinity towards trypsin.

The target of experiment [3] is Coagulation factor X (Homo sapiens, UniProt P00742). In words: Binding affinity towards Coagulation factor Xa.

Experimental findings from ChEMBL document CHEMBL1132189, “Three-dimensional quantitative structure-activity relationship analyses using comparative molecular field analysis and comparative molecular similarity indices analysis to elucidate selectivity differences of inhibitors binding to trypsin, thrombin, and factor Xa” (J Med Chem, 1999) are described below.

The term Ki denotes a measure of affinity in units of concentration, obtained from inhibition or displacement.

Coagulation factor X, sequence (P00742 41-179 limits assumed): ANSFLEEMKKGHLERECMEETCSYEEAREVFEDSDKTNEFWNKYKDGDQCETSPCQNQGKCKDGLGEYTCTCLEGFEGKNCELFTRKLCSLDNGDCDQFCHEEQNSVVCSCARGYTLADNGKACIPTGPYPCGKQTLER
Coagulation factor X, sequence (P00742 235-488 limits assumed): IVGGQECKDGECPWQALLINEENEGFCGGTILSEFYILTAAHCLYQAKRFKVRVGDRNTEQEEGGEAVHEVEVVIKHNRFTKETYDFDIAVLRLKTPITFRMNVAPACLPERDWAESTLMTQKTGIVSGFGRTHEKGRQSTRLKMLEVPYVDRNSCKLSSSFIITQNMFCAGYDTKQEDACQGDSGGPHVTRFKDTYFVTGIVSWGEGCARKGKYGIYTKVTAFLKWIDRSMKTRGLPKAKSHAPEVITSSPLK

In the case of `N=C(N)c1cccc(C[C@H](NS(=O)(=O)c2ccc3ccccc3c2)C(=O)N2CCC[C@H](C(=O)O)C2)c1`, the Ki in experiment [1] was 1.1 µM; in experiment [2], 0.437 µM; in experiment [3], […].

For `N=C(N)c1cccc(C[C@H](NS(=O)(=O)c2ccc3ccccc3c2)C(=O)N2CCOCC2)c1`, the results for the inhibitory constant (Ki) in experiment [1], in experiment [2] and in experiment [3] were 0.042 µM, 0.21 µM and 16 µM, respectively.

Regarding `CC(C)OC(=O)C1CCN(C(=O)[C@H](Cc2cccc(C(=N)N)c2)NS(=O)(=O)c2ccc3ccccc3c2)CC1`, the Ki in experiment [1] is 0.71 µM; in experiment [2], 0.023 µM; in experiment [3], 25.1 µM.

With `CC(C)c1cc(C(C)C)c(S(=O)(=O)N[C@@H](Cc2cccc(C(=N)N)c2)C(=O)N2CCN(S(C)(=O)=O)CC2)c(C(C)C)c1`, the Ki is 0.28 µM in experiment [1], 0.979 µM in experiment [2] and 7.4 µM in experiment [3].

Take `COC(=O)[C@H]1C[C@H](C)CCN1C(=O)[C@H](Cc1cccc(C(=N)N)c1)NS(=O)(=O)c1ccc2ccccc2c1`: the Ki is 0.0959 µM in experiment [1], 2.2 µM in experiment [2] and […] in experiment [3].

For the compound `N=C(N)c1cccc(C[C@H](NS(=O)(=O)c2ccc3ccccc3c2)C(=O)N2Cc3ccccc3C[C@@H]2C(=O)OCc2ccccc2)c1`, the inhibitory constant (Ki) in experiment [1] was 0.69 µM; in experiment [2], 1.2 µM; in experiment [3], 7.76 µM.

Turning to `COC(=O)[C@H]1CCC[C@H](C)N1C(=O)[C@H](Cc1cccc(C(=N)N)c1)NS(=O)(=O)c1ccc2ccccc2c1`, the inhibitory constant (Ki) in experiment [1] was 0.42 µM; in experiment [2], 2.1 µM; in experiment [3] it was 3.2 µM.

Consider `CCCCNC(=O)[C@H](Cc1cccc(C(=N)N)c1)NS(=O)(=O)c1ccc2ccccc2c1`, for which the Ki in experiment [1] is 0.12 µM; in experiment [2], 4 µM; in experiment [3] it was 46.8 µM.
